Test results published in US11135212B2, “Method for treating osteoporosis, osteopenia or low bone mineral density” (Altum Pharmaceuticals Inc., priority 2009, dated 2021).

Assays:
ovariectomized rats [1] = experiment: Tibial bone mineral density by dual-energy X-ray absorptiometry in ovariectomized rats; type: in vivo, Sprague-Dawley female rats; details: 15 mg/kg oral, day one through day five of each week (daily), 32 days after first administration; FIG. 3
Procedure: (§1) The Sprague-Dawley female rats (100-125 gram, about 12 weeks old) were purchased from Taconic (Hudson, N.Y.). They were divided into 5 groups of 8 rats each. Four groups were ovariectomized, and one group was sham-operated. The rats were treated in the following manner: Group 1 ovariectomized rats were orally administered day one through day five of each week with 15 mg/kg tris(8-quinolinolato)gallium(III) (“daily”); Group 2 ovariectomized rats were treated with 75 mg/kg tris(8-quinolinolato)gallium(III) on day one of each week (“weekly”); Group 3 ovariectomized rats were treated with 38 mg/kg Ga(NO3)3 on day one of each week (“weekly”); Group 4 ovariectomized rats were treated with vehicle only (0.1% carboxymethylcellulose); Group 5 rats were sham-operated and were administered with vehicle only (0.1% carboxymethylcellulose). At the end of the experiment (32 days after the first administration of the compounds), the animals were anesthetized. Areal bone mineral density (BMD) and bone mineral content (BMC) were measured for the tibiae by dual-energy X-ray absorptiometry using an X-ray pixiMUS mouse densitometer.

ovariectomized rats [2] = experiment: Serum osteocalcin by ELISA in ovariectomized rats; type: in vivo, Sprague-Dawley female rats; details: daily drug (15 mg/kg oral, day one through day five of each week), FIG. 4
Procedure: as §1
Blood was drawn from the rats and left at room temperature for at least 30 minutes before centrifuging at 200×g for 10 minutes to separate sera. Serum was used for the measurement of serum markers including osteocalcin. Osteocalcin was measured by ELISA. […]

TRAP gene expression = experiment: Osteoclast marker gene expression by real time RT-PCR: TRAP; type: cell-based, mouse (C57BL/6); details: osteoclasts treated with drug vs DMSO; FIG. 2
Procedure: (§2) Mouse bone marrow cells were flushed out from femora and tibiae of two 1-2-month old mice (C57BL/6), plated in culture medium (alpha MEM supplemented with 10% heat-inactivated fetal bovine serum, 100 international units/ml penicillin, 100 μg/ml streptomycin, and 2 mM L-glutamine) in a 100-mm dish, and incubated at 37° C. in 5% CO2 overnight. The next day, the non-adherent cells were pelleted and seeded at a density of 200,000 cells/cm^2. Then the osteoclast precursors were cultured in the presence of sRANKL (30 ng/ml) and M-CSF (30 ng/ml), and were treated with either tris(8-quinolinolato)gallium(III) or GaNO3 or DMSO (as a control). The medium was changed at day 3 to obtain mature osteoclasts at day 6. […] At the end of the treatment, the osteoclast preparations were stained for TRAP activity using a leukocyte acid phosphatase kit from Sigma and counted for TRAP-staining multinucleated cells. […] The number of cells having more than 3 nuclei was counted.
(§3) RNA was also isolated for gene expression analysis of osteoclast marker genes (TRAP, cathepsin K and NFAT2). Total RNA was extracted from osteoclasts treated with DMSO or tris(8-quinolinolato)gallium(III), and mRNAs were measured using real time RT-PCR. The relative levels of mRNAs were normalized to β-actin and then expressed as fold stimulation over DMSO-treated cells.

[3] = test system: cathepsin K gene expression; experiment: Osteoclast marker gene expression by real time RT-PCR: cathepsin K; type: cell-based, mouse (C57BL/6); details: osteoclasts treated with drug vs DMSO; FIG. 2
Procedure: as §2, §3

[4] = test system: osteoclast precursors (mouse bone marrow cells); experiment: Osteoclast differentiation/formation: count of TRAP-staining multinucleated cells from osteoclast precursors cultured with sRANKL and M-CSF; type: cell-based, mouse (C57BL/6); details: 0.2 nM to 100 μM, day 6, TRAP-stained cells with more than 3 nuclei; p<0.05 compared with DMSO and GaNO3 (3.9 μM, 39 μM); FIG. 1
Procedure: Mouse bone marrow cells were flushed out from femora and tibiae of two 1-2-month old mice (C57BL/6), plated in culture medium (alpha MEM supplemented with 10% heat-inactivated fetal bovine serum, 100 international units/ml penicillin, 100 μg/ml streptomycin, and 2 mM L-glutamine) in a 100-mm dish, and incubated at 37° C. in 5% CO2 overnight. The next day, the non-adherent cells were pelleted and seeded at a density of 200,000 cells/cm^2. Then the osteoclast precursors were cultured in the presence of sRANKL (30 ng/ml) and M-CSF (30 ng/ml), and were treated with either tris(8-quinolinolato)gallium(III) or GaNO3 or DMSO (as a control). The medium was changed at day 3 to obtain mature osteoclasts at day 6. For treatment with tris(8-quinolinolato)gallium(III), a drug stock solution prepared by dissolving tris(8-quinolinolato)gallium(III) in DMSO was added to the cell cultures to arrive at final concentrations of 0.2 nM, 2 nM, 0.02 μM, 0.2 μM, 2 μM, 20 μM, 50 μM, or 100 μM. At the end of the treatment, the osteoclast preparations were stained for TRAP activity using a leukocyte acid phosphatase kit from Sigma and counted for TRAP-staining multinucleated cells. Specifically, TRAP staining was performed and five areas of each well were photographed. The number of cells having more than 3 nuclei was counted.

NFAT2 gene expression = experiment: Osteoclast marker gene expression by real time RT-PCR: NFAT2; type: cell-based, mouse (C57BL/6); details: osteoclasts treated with drug vs DMSO; FIG. 2
Procedure: as §2, §3

[Ga+3].[O-]c1cccc2cccnc12.[O-]c1cccc2cccnc12.[O-]c1cccc2cccnc12 [tris(8-quinolinolato)gallium(III)]
bone mineral density (tibiae) compared to ovariectomized untreated rats (ovariectomized rats [1]): increased bone mineral density | serum osteocalcin compared to ovariectomized rats treated with vehicle only (ovariectomized rats [2]): significantly associated with reduced serum osteocalcin | TRAP gene expression (mRNA normalized to β-actin, fold over DMSO-treated cells) (TRAP gene expression): significantly inhibited | cathepsin K gene expression (mRNA normalized to β-actin, fold over DMSO-treated cells) [3]: significantly inhibited | fusion of osteoclast precursors into multinucleated cells (osteoclast differentiation/formation) [4]: significantly inhibits | NFAT2 gene expression (mRNA normalized to β-actin, fold over DMSO-treated cells) (NFAT2 gene expression): significantly inhibited
